How the values were obtained:
Assay in all cases: Transient transfection (transactivation) assay in CV-1 cells, GAL4-PPAR chimera, luciferase reporter
Assay type in all cases: cell-based
[1] = target: T1, PPAR delta (Homo sapiens, UniProt Q03181)
T1 construct: expressed in transfected cells; host or cells: CV-1 cells
T1 sequence (Q03181 211-439 limits assumed): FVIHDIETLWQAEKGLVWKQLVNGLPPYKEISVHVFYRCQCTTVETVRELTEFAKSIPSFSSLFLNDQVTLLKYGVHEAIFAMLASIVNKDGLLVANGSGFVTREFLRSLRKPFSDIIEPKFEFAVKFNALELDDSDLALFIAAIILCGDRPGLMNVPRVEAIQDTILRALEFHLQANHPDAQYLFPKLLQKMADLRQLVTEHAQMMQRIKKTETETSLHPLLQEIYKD
Text: Compounds may be screened for functional potency in transient transfection assays in CV-1 cells or other cell types for their ability to activate the PPAR subtypes (transactivation assay). A previously established chimeric receptor system was utilized to allow comparison of the relative transcriptional activity of the receptor subtypes on the same synthetic response element and to prevent endogenous receptor activation from complicating the interpretation of results. […] The ligand binding domains for murine and human PPAR-alpha, PPAR-gamma, and PPAR-delta are each fused to the yeast transcription factor GAL4 DNA binding domain. CV-1 cells were transiently transfected with expression vectors for the respective PPAR chimera along with a reporter construct containing four or five copies of the GAL4 DNA binding site driving expression of luciferase. After 8-16 h, the cells are replated into multi-well assay plates and the media is exchanged to phenol-red free DME medium supplemented with 5% delipidated calf serum. 4 hours after replating, cells were treated with either compounds or 1% DMSO for 20-24 hours. Luciferase activity was then assayed with Britelite (Perkin Elmer) following the manufacturer's protocol and measured with either the Perkin Elmer Viewlux or Molecular Devices Acquest Xsee, for example, Kliewer, S. A., et. al. Cell 1995, 83, 813-819). Rosiglitazone is used as a positive control in the hPPAR-γ assay. Wy-14643 and GW7647 is used as a positive control in the hPPAR-α assay. GW501516 is used as the positive control in the hPPAR-δ assay.

[2] = target: T2, PPAR alpha (Homo sapiens, UniProt Q07869)
T2 construct: expressed in transfected cells; host or cells: CV-1 cells
T2 sequence (Q07869 239-466 limits assumed): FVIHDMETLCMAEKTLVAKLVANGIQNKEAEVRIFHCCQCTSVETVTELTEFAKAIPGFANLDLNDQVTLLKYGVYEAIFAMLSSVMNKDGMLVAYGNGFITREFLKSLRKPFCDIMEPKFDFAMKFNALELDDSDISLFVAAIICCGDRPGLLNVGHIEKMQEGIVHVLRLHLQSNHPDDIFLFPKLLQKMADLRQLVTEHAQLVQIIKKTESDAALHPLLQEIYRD
Procedure, shortened: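 GAL4 DNA-binding domain fused to PPAR ligand binding domain, co-transfected into CV-1 cells with a luciferase reporter carrying four or five GAL4 sites. Replated cells in phenol-red free DME with 5% delipidated calf serum were treated with compound or 1% DMSO for 20-24 hours; luciferase read for EC50 and efficacy.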

[3] = target: T3, PPAR gamma (Homo sapiens, UniProt P37231)
T3 construct: expressed in transfected cells; host or cells: CV-1 cells
T3 sequence (P37231 238-503 limits assumed): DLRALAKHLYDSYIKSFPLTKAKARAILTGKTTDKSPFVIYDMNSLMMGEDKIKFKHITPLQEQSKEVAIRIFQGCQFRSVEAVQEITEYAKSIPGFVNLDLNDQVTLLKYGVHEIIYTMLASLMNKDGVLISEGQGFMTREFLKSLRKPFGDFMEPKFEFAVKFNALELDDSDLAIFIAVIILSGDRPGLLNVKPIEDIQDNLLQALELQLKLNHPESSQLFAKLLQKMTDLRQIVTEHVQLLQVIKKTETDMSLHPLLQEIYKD

SMILES | EC50 [1] | EC50 [2] | EC50 [3]
C[C@@H]1CN(c2ccc(OC(F)(F)F)cc2)C[C@H](C)N1S(=O)(=O)c1cccc(CC(=O)O)c1 [Example 109, {3-[2,6-Dimethyl-4-(4-trifluoromethoxy-phenyl)-piperazine-1-sulfonyl]-phenyl}-acetic acid] | < 5 µM | 5 to 100 µM | > 100 µM
Cc1cc(CC(=O)O)cc(S(=O)(=O)N2[C@H](C)CN(c3ccc(OC(F)(F)F)cc3)C[C@@H]2C)c1 [Example 110, {3-[2,6-Dimethyl-4-(4-trifluoromethoxy-phenyl)-piperazine-1-sulfonyl]-5-methyl-phenyl}-acetic acid] | < 5 µM | 5 to 100 µM | 5 to 100 µM
C[C@@H]1CN(c2ccc(OC(F)(F)F)cc2)C[C@H](C)N1S(=O)(=O)c1cc(CC(=O)O)cc(C(F)(F)F)c1 [Example 111, {3-[2,6-Dimethyl-4-(4-trifluoromethoxy-phenyl)-piperazine-1-sulfonyl]-5-trifluoromethyl-phenyl}-acetic acid] | < 5 µM | 5 to 100 µM | 5 to 100 µM
Cc1cc(CC(=O)O)cc(S(=O)(=O)N2[C@H](C)CN(c3ccc(C(F)(F)F)c(Cl)c3)C[C@@H]2C)c1 [Example 112, {3-[4-(3-Chloro-4-trifluoromethyl-phenyl)-2,6-dimethyl-piperazine-1-sulfonyl]-5-methyl-phenyl}-acetic acid] | < 5 µM | 5 to 100 µM | > 100 µM
C[C@@H]1CN(c2ccc(C(F)(F)F)c(F)c2)C[C@H](C)N1S(=O)(=O)c1cccc(CC(=O)O)c1 [Example 113, {3-[4-(3-Fluoro-4-trifluoromethyl-phenyl)-2,6-dimethyl-piperazine-1-sulfonyl]-phenyl}-acetic acid] | < 5 µM | 5 to 100 µM | > 100 µM
C[C@@H]1CN(c2ccc(C(F)(F)F)c(Cl)c2)C[C@H](C)N1S(=O)(=O)c1cccc(CC(=O)O)c1 [Example 114, {3-[4-(3-Chloro-4-trifluoromethyl-phenyl)-2,6-dimethyl-piperazine-1-sulfonyl]-phenyl}-acetic acid] | < 5 µM | 5 to 100 µM | > 100 µM
O=C(O)Cc1cccc(S(=O)(=O)N2CCN(c3ccc(Cl)c(Cl)c3)CC2)c1 [Example 115, {3-[4-(3,4-Dichloro-phenyl)-piperazine-1-sulfonyl]-phenyl}-acetic acid] | < 5 µM | 5 to 100 µM | 5 to 100 µM
O=C(O)Cc1cccc(S(=O)(=O)N2CCN(c3ccc(Cl)cc3)CC2)c1 [Example 116, {3-[4-(4-Chloro-phenyl)-piperazine-1-sulfonyl]-phenyl}-acetic acid] | < 5 µM | > 100 µM | 5 to 100 µM
Cc1ccc(N2CCN(S(=O)(=O)c3cccc(CC(=O)O)c3)CC2)c(C)c1 [Example 117, {3-[4-(2,4-Dimethyl-phenyl)-piperazine-1-sulfonyl]-phenyl}-acetic acid] | < 5 µM | > 100 µM | 5 to 100 µM
Cc1cccc(N2CCN(S(=O)(=O)c3cccc(CC(=O)O)c3)CC2C)c1 (stereo not drawn) [Example 118, [3-(3-methyl-4-m-tolyl-piperazine-1-sulfonyl)-phenyl]-acetic acid] | 5 to 100 µM | > 100 µM | 5 to 100 µM
Cc1ccc(N2CCN(S(=O)(=O)c3cccc(CC(=O)O)c3)CC2)cc1C [Example 119, {3-[4-(3,4-Dimethyl-phenyl)-piperazine-1-sulfonyl]-phenyl}-acetic acid] | 5 to 100 µM | 5 to 100 µM | 5 to 100 µM
Cc1ccc(Cl)cc1N1CCN(S(=O)(=O)c2cccc(CC(=O)O)c2)CC1 [Example 120, {3-[4-(5-Chloro-2-methyl-phenyl)-piperazine-1-sulfonyl]-phenyl}-acetic acid] | > 100 µM | > 100 µM | > 100 µM
O=C(O)Cc1cccc(S(=O)(=O)N2CCN(CCc3ccccc3)CC2)c1 [Example 121, [3-(4-phenethyl-piperazine-1-sulfonyl)-phenyl]-acetic acid] | > 100 µM | > 100 µM | > 100 µM

— patent US20050234046A1 (Kalypsys, Inc., priority 2004, published 2005)
